Two compounds from PMC5762338, “A novel orally available Syk/Src/Jak2 inhibitor, SKLB-850, showed potent anti-tumor activities in B cell lymphoma (BCL) models” (Oncotarget, 2017) can be followed below.

This experiment has as its system HBL-1 cells. The experiment in a line: Apoptosis assay, AnnexinV-FITC/propidium iodide FCM. It counts as cell-based, Human. The settings on record: HBL-1, treatment for 18 hours (legend: 24 hours). As to the method: Figure 1 The chemical structure of SKLB-850 and its anti-tumor effects in vitro (A) The chemical structure of SKLB-850. (B and C) Apoptosis of Ramos cells induced by SKLB-850. Cells were treated by vehicle, R788 or indicated concentrations of compounds. […]
The ability of SKLB-850 to induce apoptosis of BCL cells was analyzed by FCM. […]
Flow cytometry (FCM) assays were performed to investigate the apoptosis of Ramos and HBL-1 cells induced by SKLB-850. […] Cell apoptosis was analyzed with a flow cytometer (BD FACSCalibur, BD, USA).

For `COc1cc(Nc2ncc(F)c(Nc3ccc4c(n3)N(COP(=O)(O)O)C(=O)C(C)(C)O4)n2)cc(OC)c1OC` [R788, reference compound], the “percentages of apoptotic cells (in words)” value was “induced apoptosis but obviously much weaker”.
For `CN1CCN(c2ccc(Nc3ncc(F)c(Nc4ccc(Cl)cc4C(N)=O)n3)cc2)CC1` [SKLB-850, 5-chloro-2-((5-fluoro-2-((4-(4-methylpiperazin-1-yl)phenyl)amino)pyrimidin-4-yl)amino) benzamide], the “percentages of apoptotic cells (in words)” value is recorded as “dose-dependently increased”.
